Measured values as given in article PMC7366380, “Discovery of a Potent and Selective Covalent Inhibitor and Activity-Based Probe for the Deubiquitylating Enzyme UCHL1, with Antifibrotic Activity” (Journal of the American Chemical Society, 2020).
Where “and” joins values, the source holds several entries; their conditions need not be identical. Identical values can stand only once.

Tests used:
Experiment in all cases: In-cell proteome-wide competitive ABPP, HEK293: other DUBs and proteins
[1] = biological target: DUBs and other proteins in HEK293 cells (Homo sapiens, UniProt O00487); details: replicates A-C; for Log2 reporter intensity values: PSMD14: competition with ABP 2, DMSO substract (FC); for Log2 reporter intensity values: PSMD14, DMSO subtracted
Chain of DUBs and other proteins in HEK293 cells (Homo sapiens, UniProt O00487) (O00487 whole entry): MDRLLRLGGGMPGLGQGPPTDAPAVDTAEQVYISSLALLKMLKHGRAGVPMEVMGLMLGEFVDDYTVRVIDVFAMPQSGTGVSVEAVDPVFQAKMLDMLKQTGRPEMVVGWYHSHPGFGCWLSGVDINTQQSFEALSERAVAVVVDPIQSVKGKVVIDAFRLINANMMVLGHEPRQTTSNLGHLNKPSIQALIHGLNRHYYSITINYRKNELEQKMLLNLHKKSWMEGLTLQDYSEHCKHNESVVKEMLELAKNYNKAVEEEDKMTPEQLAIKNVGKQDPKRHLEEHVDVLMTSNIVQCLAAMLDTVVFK

[2] = biological target: DUBs and other proteins in HEK293 cells (Homo sapiens, UniProt P54578); details: replicates A-C; for Log2 reporter intensity values: USP14: competition with ABP 2, DMSO substract (FC); for Log2 reporter intensity values: USP14, DMSO subtracted
Chain of DUBs and other proteins in HEK293 cells (Homo sapiens, UniProt P54578) (P54578 whole entry): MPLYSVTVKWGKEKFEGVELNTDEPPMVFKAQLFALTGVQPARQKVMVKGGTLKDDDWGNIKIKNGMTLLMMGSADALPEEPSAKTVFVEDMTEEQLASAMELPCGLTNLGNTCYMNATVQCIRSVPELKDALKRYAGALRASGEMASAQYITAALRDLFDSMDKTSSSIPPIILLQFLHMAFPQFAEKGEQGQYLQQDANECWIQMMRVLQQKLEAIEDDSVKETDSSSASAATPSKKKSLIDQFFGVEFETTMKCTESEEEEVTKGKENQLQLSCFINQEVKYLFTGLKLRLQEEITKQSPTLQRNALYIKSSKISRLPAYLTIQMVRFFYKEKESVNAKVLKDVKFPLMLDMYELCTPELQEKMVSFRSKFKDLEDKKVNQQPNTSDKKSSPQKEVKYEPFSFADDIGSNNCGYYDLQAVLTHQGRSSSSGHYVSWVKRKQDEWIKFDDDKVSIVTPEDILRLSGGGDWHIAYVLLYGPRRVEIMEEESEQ

[3] = biological target: T1, DUBs and other proteins in HEK293 cells (Homo sapiens, UniProt Q53GS9); details: replicates A-C; for Log2 reporter intensity values: USP39: competition with ABP 2, DMSO substract (FC); for Log2 reporter intensity values: USP39, DMSO subtracted
T1 sequence (Q53GS9 1-565): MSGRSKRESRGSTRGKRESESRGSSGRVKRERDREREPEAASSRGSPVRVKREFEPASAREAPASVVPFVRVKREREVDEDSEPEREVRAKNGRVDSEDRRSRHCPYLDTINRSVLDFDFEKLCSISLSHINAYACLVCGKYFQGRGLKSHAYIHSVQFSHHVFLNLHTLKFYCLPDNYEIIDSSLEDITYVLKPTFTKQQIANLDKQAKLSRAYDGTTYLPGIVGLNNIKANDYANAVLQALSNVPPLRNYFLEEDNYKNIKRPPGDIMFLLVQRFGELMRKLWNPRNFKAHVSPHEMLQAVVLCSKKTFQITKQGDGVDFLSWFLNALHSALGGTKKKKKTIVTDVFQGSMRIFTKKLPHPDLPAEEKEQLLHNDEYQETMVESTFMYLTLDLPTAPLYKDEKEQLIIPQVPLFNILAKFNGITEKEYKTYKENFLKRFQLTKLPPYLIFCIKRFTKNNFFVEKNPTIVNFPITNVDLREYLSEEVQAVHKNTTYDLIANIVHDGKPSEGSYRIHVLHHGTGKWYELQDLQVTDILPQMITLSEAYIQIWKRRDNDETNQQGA

[4] = biological target: DUBs and other proteins in HEK293 cells (Homo sapiens, UniProt Q6P2Q9); details: replicates A-C; for Log2 reporter intensity values: PRPF8: competition with ABP 2, DMSO substract (FC); for Log2 reporter intensity values: PRPF8, DMSO subtracted
[5] = biological target: T2, DUBs and other proteins in HEK293 cells (Homo sapiens, UniProt Q86UV5); details: for Log2 reporter intensity values: USP48: competition with ABP 2, DMSO substract (FC), replicates A-B; for Log2 reporter intensity values: USP48, DMSO subtracted
T2 sequence (Q86UV5 1-1035): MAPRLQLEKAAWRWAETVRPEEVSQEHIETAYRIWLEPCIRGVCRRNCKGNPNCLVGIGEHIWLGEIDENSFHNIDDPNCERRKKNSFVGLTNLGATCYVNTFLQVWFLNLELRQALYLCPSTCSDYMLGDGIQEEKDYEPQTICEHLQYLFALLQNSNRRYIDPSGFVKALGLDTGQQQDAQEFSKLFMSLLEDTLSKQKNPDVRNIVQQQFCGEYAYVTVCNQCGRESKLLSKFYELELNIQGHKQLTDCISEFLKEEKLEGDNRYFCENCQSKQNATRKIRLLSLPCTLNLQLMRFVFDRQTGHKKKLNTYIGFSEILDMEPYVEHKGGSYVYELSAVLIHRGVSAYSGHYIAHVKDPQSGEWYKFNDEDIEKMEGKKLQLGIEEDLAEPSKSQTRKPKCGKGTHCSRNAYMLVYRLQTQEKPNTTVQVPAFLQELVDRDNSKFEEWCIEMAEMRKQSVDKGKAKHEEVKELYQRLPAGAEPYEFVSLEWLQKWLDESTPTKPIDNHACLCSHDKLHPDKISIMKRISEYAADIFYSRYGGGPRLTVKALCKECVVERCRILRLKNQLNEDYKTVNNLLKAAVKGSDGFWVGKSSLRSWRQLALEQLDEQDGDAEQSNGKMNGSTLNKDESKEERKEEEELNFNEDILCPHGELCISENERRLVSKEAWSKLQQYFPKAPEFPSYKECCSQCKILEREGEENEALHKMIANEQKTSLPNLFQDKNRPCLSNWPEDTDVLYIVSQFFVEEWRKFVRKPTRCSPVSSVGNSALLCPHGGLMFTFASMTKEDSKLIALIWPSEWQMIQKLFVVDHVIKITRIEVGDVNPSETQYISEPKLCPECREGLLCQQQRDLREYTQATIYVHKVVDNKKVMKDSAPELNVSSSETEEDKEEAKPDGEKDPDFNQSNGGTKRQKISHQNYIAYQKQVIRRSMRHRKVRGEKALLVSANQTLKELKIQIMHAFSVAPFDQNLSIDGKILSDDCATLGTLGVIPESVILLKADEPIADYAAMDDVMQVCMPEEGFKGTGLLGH

[6] = biological target: DUBs and other proteins in HEK293 cells (Homo sapiens, UniProt Q93009); details: replicates A-C; for Log2 reporter intensity values: USP7: competition with ABP 2, DMSO substract (FC); for Log2 reporter intensity values: USP7, DMSO subtracted
Chain of DUBs and other proteins in HEK293 cells (Homo sapiens, UniProt Q93009) (Q93009 whole entry): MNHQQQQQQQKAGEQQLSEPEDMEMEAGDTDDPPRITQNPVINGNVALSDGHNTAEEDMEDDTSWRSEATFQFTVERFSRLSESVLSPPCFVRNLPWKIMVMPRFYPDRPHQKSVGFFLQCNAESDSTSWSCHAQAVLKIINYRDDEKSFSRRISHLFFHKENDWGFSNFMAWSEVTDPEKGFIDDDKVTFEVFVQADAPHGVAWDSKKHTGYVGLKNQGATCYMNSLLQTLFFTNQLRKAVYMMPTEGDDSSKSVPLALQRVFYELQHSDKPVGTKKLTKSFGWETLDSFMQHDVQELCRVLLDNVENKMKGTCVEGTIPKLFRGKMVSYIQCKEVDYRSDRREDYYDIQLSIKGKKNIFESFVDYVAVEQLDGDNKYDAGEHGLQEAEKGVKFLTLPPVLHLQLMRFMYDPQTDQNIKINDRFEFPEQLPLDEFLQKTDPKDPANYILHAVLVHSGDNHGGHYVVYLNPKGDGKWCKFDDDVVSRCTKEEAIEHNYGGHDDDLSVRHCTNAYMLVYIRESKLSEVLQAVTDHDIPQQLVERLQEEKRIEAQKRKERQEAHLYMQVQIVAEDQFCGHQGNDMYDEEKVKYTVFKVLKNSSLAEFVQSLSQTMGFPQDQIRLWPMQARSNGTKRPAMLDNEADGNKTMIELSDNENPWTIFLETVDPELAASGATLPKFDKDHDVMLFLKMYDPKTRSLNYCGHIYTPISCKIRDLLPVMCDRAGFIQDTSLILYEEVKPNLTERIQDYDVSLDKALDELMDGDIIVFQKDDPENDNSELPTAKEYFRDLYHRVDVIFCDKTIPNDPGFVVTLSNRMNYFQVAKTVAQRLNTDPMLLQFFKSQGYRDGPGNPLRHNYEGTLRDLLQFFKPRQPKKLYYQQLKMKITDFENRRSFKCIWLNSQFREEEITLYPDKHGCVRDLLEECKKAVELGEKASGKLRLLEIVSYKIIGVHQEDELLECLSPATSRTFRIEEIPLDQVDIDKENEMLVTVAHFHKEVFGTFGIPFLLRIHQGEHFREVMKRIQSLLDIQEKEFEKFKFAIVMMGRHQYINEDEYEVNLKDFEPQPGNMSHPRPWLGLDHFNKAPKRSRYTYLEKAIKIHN

[7] = biological target: DUBs and other proteins in HEK293 cells (Homo sapiens, UniProt Q96BN8); details: replicates A-C; for Log2 reporter intensity values: OTULIN: competition with ABP 2, DMSO substract (FC); for Log2 reporter intensity values: OTULIN, DMSO subtracted
Chain of DUBs and other proteins in HEK293 cells (Homo sapiens, UniProt Q96BN8) (Q96BN8 whole entry): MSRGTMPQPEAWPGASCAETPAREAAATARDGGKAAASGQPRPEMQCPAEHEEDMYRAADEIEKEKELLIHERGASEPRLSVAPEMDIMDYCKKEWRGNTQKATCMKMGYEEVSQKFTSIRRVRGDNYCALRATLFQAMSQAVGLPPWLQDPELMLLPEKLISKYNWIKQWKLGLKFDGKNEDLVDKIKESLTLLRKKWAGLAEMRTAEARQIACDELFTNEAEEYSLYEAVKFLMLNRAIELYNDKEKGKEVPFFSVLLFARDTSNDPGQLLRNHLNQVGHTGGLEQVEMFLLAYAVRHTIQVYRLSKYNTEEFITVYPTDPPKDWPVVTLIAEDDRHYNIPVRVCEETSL

N#CN1CCC[C@@H]1C(=O)N1CCc2c(-c3c[nH]c4ncccc34)cccc21 [Compound 3]
Log2 reporter intensity values: PSMD14 ([1]; 3 at 1 μM): 1.063 and 1.033 and 1.055 | Log2 reporter intensity values: PSMD14 ([1]; 3 at 4 μM): 1.048 and 1.127 and 1.122 | Log2 reporter intensity values ([1]; 3_1 μM): 0.06036 and 0.03045 and 0.0523 | Log2 reporter intensity values ([1]; 3_4 μM): 0.04582 and 0.1244 and 0.1197 | Log2 reporter intensity values ([1]; 3 at 1 μM): 0.08818 and 0.04699 and 0.07719 | Log2 reporter intensity values ([1]; 3 at 4 μM): 0.06829 and 0.1725 and 0.1665 | Log2 reporter intensity values: USP14 ([2]; 3 at 1 μM): 1.142 and 1.077 and 1.079 | Log2 reporter intensity values: USP14 ([2]; 3 at 4 μM): 1.079 and 1.198 and 1.16 | Log2 reporter intensity values ([2]; 3_1 μM): 0.1415 and 0.07672 and 0.07886 | Log2 reporter intensity values ([2]; 3_4 μM): 0.07915 and 0.1978 and 0.16 | Log2 reporter intensity values ([2]; 3 at 1 μM): 0.1912 and 0.1069 and 0.1098 | Log2 reporter intensity values ([2]; 3 at 4 μM): 0.1102 and 0.2606 and 0.2145 | Log2 reporter intensity values: USP39 ([3]; 3 at 1 μM): 0.9789 and 0.9555 and 0.9911 | Log2 reporter intensity values: USP39 ([3]; 3 at 4 μM): 0.9367 and 1.076 and 1.058 | Log2 reporter intensity values ([3]; 3_1 μM): -0.0217 and -0.04512 and -0.009501 | Log2 reporter intensity values ([3]; 3_4 μM): -0.06394 and 0.07549 and 0.05768 | Log2 reporter intensity values ([3]; 3 at 1 μM): -0.03075 and -0.0657 and -0.01288 | Log2 reporter intensity values ([3]; 3 at 4 μM): -0.09439 and 0.1058 and 0.08174 | Log2 reporter intensity values: PRPF8 ([4]; 3 at 1 μM): 0.9503 and 0.8885 and 0.9546 | Log2 reporter intensity values: PRPF8 ([4]; 3 at 4 μM): 0.9411 and 0.9829 and 0.9624 | Log2 reporter intensity values ([4]; 3_1 μM): -0.0499 and -0.1118 and -0.04563 | Log2 reporter intensity values ([4]; 3_4 μM): -0.05909 and -0.0173 and -0.03782 | Log2 reporter intensity values ([4]; 3 at 1 μM): -0.07348 and -0.1706 and -0.06701 | Log2 reporter intensity values ([4]; 3 at 4 μM): -0.08751 and -0.02483 and -0.05526 | Log2 reporter intensity values: USP48 ([5]; 3 at 1 μM): 1.063 and 0.8844 | Log2 reporter intensity values: USP48 ([5]; 3 at 4 μM): 0.8635 and 1.157 | Log2 reporter intensity values ([5]; 3_1 μM, replicates A-B (C NaN)): 0.06169 and -0.1169 | Log2 reporter intensity values ([5]; 3_4 μM, replicates A-B (C NaN)): -0.1378 and 0.156 | Log2 reporter intensity values ([5]; 3 at 1 μM, replicates A-C): 0.08809 and -0.1773 | Log2 reporter intensity values ([5]; 3 at 4 μM, replicates A-C): -0.2118 and 0.2108 | Log2 reporter intensity values: USP7 ([6]; 3 at 1 μM): 1.005 and 1.034 and 1.047 | Log2 reporter intensity values: USP7 ([6]; 3 at 4 μM): 0.9485 and 1.006 and 0.9977 | Log2 reporter intensity values ([6]; 3_1 μM): 0.004952 and 0.03394 and 0.04709 | Log2 reporter intensity values ([6]; 3_4 μM): -0.05181 and 0.006115 and -0.002591 | Log2 reporter intensity values ([6]; 3 at 1 μM): 0.007531 and 0.04854 and 0.06677 | Log2 reporter intensity values ([6]; 3 at 4 μM): -0.07633 and 0.0092 and -0.003335 | Log2 reporter intensity values: OTULIN ([7]; 3 at 1 μM): 1.194 and 0.9889 and 0.9216 | Log2 reporter intensity values: OTULIN ([7]; 3 at 4 μM): 0.8963 and 0.9821 and 1.002 | Log2 reporter intensity values ([7]; 3_1 μM): 0.1933 and -0.01163 and -0.07888 | Log2 reporter intensity values ([7]; 3_4 μM): -0.1043 and -0.01848 and 0.001875 | Log2 reporter intensity values ([7]; 3 at 1 μM): 0.2556 and -0.01611 and -0.1177 | Log2 reporter intensity values ([7]; 3 at 4 μM): -0.158 and -0.02613 and 0.003463
